The values that follow come from PMC10167355, “Optimized spirooxindole-pyrazole hybrids targeting the p53-MDM2 interplay induce apoptosis and synergize with doxorubicin in A549 cells” (Scientific Reports, 2023).

Entries after “also recorded” stand apart in the source; their conditions may differ.

Broadly, the melting point is the temperature, or range, at which the solid turns liquid. A word on the IC50: it is the concentration that gives 50% inhibition.

In one series the test system is p53. The series is described as follows: Western blot of p53 level in A549 cells. Particulars: for p53 induction, dose–response: A549, 24 h, 0.01, 0.1, 1, 10 µM; for p53 level, single agent / p53 level, combined treatment compared to doxorubicin alone: A549; for p53 level, single agent: 0.2 µM derivative alone or 14 µM doxorubicin alone; for p53 level, combined treatment compared to doxorubicin alone: 0.2 µM derivative plus 14 µM doxorubicin. The format is cell-based, human. As for the experimental part: (§1) A549 cells were treated with different concentrations of the molecules as indicated. Cell extracts were prepared as described. Ten-20 μg of total proteins were resolved on 4–15% Mini protean TGX precast gels (Bio-Rad) and transferred to nitrocellulose membrane using 1704158 Trans-Blot Turbo Mini NC Transfer Packs (Bio-Rad) in a Trans-Blot Turbo apparatus (Bio-Rad). Membranes were blocked with 5% non-fat dry milk in 0.1% Tween-20 in PBS for 1 h, then incubated for 1 h at room temperature or overnight at 4 °C with the appropriate primary antibody. The following antibodies were employed: anti-p53 (DO-1, sc-126, Santa Cruz Biotechnology, 1:20.000), anti-p21 (2946, Cell Signaling, 1:2000), anti-MDM2 (SMP14, sc-965, Santa Cruz Biotechnology, 1:200), anti β-actin (AC-74, Sigma-Aldrich, 1:30.000); secondary anti-mouse IgG peroxidase conjugate (A9044, Sigma–Aldrich, 1:10.000) and secondary anti-rabbit peroxidase conjugate (A9169, Sigma-Aldrich, 1: 12.000). Detection was carried out with ECL FAST PICO (ECL-1002, Immunological Sciences, Roma, Italy). Chemiluminescence was analysed by Alliance LD, UVITEC Cambridge (Cambridge, UK).
In general terms: In western blotting, separated proteins are transferred to a membrane and probed.

The next series has as its system MDM2. The series is described as follows: Western blot of MDM2 level in A549 cells. Particulars: for MDM2 level, single agent / MDM2 level, combined treatment compared to doxorubicin alone: A549; for MDM2 level, single agent: 0.2 µM derivative alone or 14 µM doxorubicin alone; for MDM2 level, combined treatment compared to doxorubicin alone: 0.2 µM derivative plus 14 µM doxorubicin. The format is cell-based, human. As for the experimental part:
as §1

In a further series the test system is p21. The series is described as follows: Western blot of p21 level in A549 cells. The class given is cell-based, human. As to conditions: for p21 level, single agent / p21 level, combined treatment compared to doxorubicin alone: A549; for p21 level, single agent: 0.2 µM derivative alone or 14 µM doxorubicin alone; for p21 level, combined treatment compared to doxorubicin alone: 0.2 µM derivative plus 14 µM doxorubicin. The method, then: as §1

The next series relates to A549 cells. The series is described as follows: Annexin-V-FITC / propidium iodide apoptosis assay. The format is cell-based, human. Particulars: A549, compounds at their specific IC75s, three days. The method, then:
The induction of apoptosis was evaluated in A549 cells characterized by wild-type p53 and MDM2 proteins. They were plated at the opportune concentration (see above) into 25 cm^2 flasks in 10 mL complete medium. After 6–8 h the compounds were added at their specific IC75s, as previously calculated by the MTT assay.
All floating and adherent cells were harvested three days later, washed with normal saline buffer, and apoptosis determined by double staining with Annexin-V-FITC and propidium iodide (PI) (rh AnnexinV/FITC Kit, Bender MedSystem GmbH, Vienna, Austria). Briefly, 0.5 × 10^6 cells were resuspended in binding buffer 1× and stained with 5 μL of Annexin-V-FITC. After 10 min incubation 10 μL of PI were added and samples incubated for 5 min. Samples were immediately analyzed using a Flow Cytometer (FACScan, BD Biosciences, Milano, Italy) with dedicated software.

Series [1] deals with A2780, A549, HepG2, MDA-MB-453. The series is described as follows: MTT assay, panel of four human cancer cell lines taken together. The class given is cell-based. Particulars: all four cell lines, 30 μM = arbitrary limit of pharmacological relevance. As for the experimental part: After 6–8 h cells were treated with 20 μL containing five 1:10 fold concentrations of our compounds diluted in FCS containing 3% DMSO. As normal non-cancer cell targets we used peripheral blood lymphocytes obtained from three healthy volunteers, isolated by gradient centrifugation (Lympholyte-H Cell Separation Media, EuroClone, Pero, MI, Italy) and stimulated with 1% phytohemagglutinin and 100 U/ml recombinant IL-2. One week after stimulation cells were ready for use at 15,000/well. In both cases, after 72 h treatment, the MTT assay was applied as described elsewhere. […] IC100 and IC75 were extrapolated from the mean concentration–response curves.
For orientation: Tetrazolium assays rely on reduction of a dye to a coloured formazan, in cell work by metabolically active cells.

The next series concerns A2780 (ovarian). The series is described as follows: MTT antiproliferative assay, A2780. The class given is cell-based. Particulars: Homo sapiens, 72 h treatment, mean ± SD of 5–6 data. The method, then: (§2) Human tumor cell lines A2780 [ovary, adenocarcinoma, accession number HTL98008, obtained from Interlab Cell Line Collection (ICLC), Genova, Italy], A549 (lung, carcinoma, HTL03001, ICLC), MDA-MB-453 (breast, carcinoma, HTL01013, ICLC), and HepG2 (liver, carcinoma, HB-8065, American Type Culture Collection, Rockville, MA, USA ) were plated at 1.4 × 10^4/ml, 0.65 × 10^4/mL, 4.7 × 10^4/mL, and 1.0 × 10^4/mL, respectively, in 180 μL complete medium (RPMI 1640 for A2780 and A549 and DMEM for MDA-MB-453 and HepG2) into flat-bottomed 96-well microtiter plates. After 6–8 h cells were treated with 20 μL containing five 1:10 fold concentrations of our compounds diluted in FCS containing 3% DMSO. As normal non-cancer cell targets we used peripheral blood lymphocytes obtained from three healthy volunteers, isolated by gradient centrifugation (Lympholyte-H Cell Separation Media, EuroClone, Pero, MI, Italy) and stimulated with 1% phytohemagglutinin and 100 U/ml recombinant IL-2. One week after stimulation cells were ready for use at 15,000/well.
(§3) In both cases, after 72 h treatment, the MTT assay was applied as described elsewhere. The IC50 values were calculated from the analysis of single concentration–response curves, each final value is the mean of 5–6 experiments. IC100 and IC75 were extrapolated from the mean concentration–response curves.

For a further series, the system named is HepG2 (liver). The series is described as follows: MTT antiproliferative assay, HepG2. The format is cell-based. Particulars: Homo sapiens, 72 h treatment, mean ± SD of 5–6 data. The method, then: as §2, §3
The subject of a further series is activated PBL. The series is described as follows: MTT assay on normal PBL activated with PHA and recombinant IL-2. The format is cell-based. As to conditions: Homo sapiens, mean ± SD of 4–6 IC50 values. As for the experimental part: as §2
In both cases, after 72 h treatment, the MTT assay was applied as described elsewhere. […] IC100 and IC75 were extrapolated from the mean concentration–response curves.

Setting [2] is: A549, drug concentration equivalent to IC75 (30 µM), fold over mock.

With `Cc1c(C(=O)C2C(c3ccccc3)C3CSCN3C23C(=O)Nc2ccccc23)cnn1-c1ccccc1` (centres unmarked), the melting point fell in the range of 229 to 230 °C.
In turn, `Cc1cccc(C2C3CSCN3C3(C(=O)Nc4ccccc43)C2C(=O)c2cnn(-c3ccccc3)c2C)c1` (centres unmarked) yielded a melting point of 128 to 130 °C.
`COc1ccc(C2C3CSCN3C3(C(=O)Nc4ccccc43)C2C(=O)c2cnn(-c3ccccc3)c2C)cc1` (centres unmarked) came in with a melting point of 109 to 110 °C.
`Cc1c(C(=O)C2C(c3ccc(Cl)cc3)C3CSCN3C23C(=O)Nc2ccccc23)cnn1-c1ccccc1` (centres unmarked) had a melting point of 122 to 123 °C.
Take `Cc1c(C(=O)C2C(/C=C/c3ccccc3)C3CSCN3C23C(=O)Nc2ccccc23)cnn1-c1ccccc1` (centres unmarked): the melting point lay within 144 to 145 °C.
For the compound `Cc1c(C(=O)C2C(c3ccc([N+](=O)[O-])cc3)C3CSCN3C23C(=O)Nc2ccccc23)cnn1-c1ccccc1` (centres unmarked), the melting point fell in the range of 142 to 143 °C.
As for `Cc1c(C(=O)C2C(c3cccc([N+](=O)[O-])c3)C3CSCN3C23C(=O)Nc2ccccc23)cnn1-c1ccccc1` (centres unmarked), the melting point is 146 to 147 °C.
Compound `Cc1ccc(C2C3CSCN3C3(C(=O)Nc4ccccc43)C2C(=O)c2cnn(-c3ccccc3)c2C)cc1` (centres unmarked) yielded a melting point of 134 to 135 °C.
“7'-(Ferrocin-2-yl)-6'-(5-methyl-1-phenyl-1H-pyrazole-4-carbonyl)-3',6',7',7a'-tetrahydro-1'H-spiro[indoline-3,5'-pyrrolo[1,2-c]thiazol]-2-one [8d]”: in the series on p53, the “p53 induction, dose–response” value is “able to induce p53 only at high concentrations”; the “p53 level, single agent” value is reported as “did not increase”; the “p53 level, combined treatment compared to doxorubicin alone” value (“p53 level … compared to doxorubicin alone” for short) is “no further increases”. In addition, in the series on MDM2, the “MDM2 level, single agent” value is recorded as “slight but not significant MDM2 increase” and the “MDM2 level, combined treatment compared to doxorubicin alone” value (from here on “MDM2 level … compared to doxorubicin alone”) is listed as “no further increases”. Moreover, in the series with p21, the “p21 level, single agent” value is “did not increase” and the “p21 level, combined treatment compared to doxorubicin alone” value (shortened to “p21 level … compared to doxorubicin alone”) is “no further increases”.
The compound `Cc1c(C(=O)C2C(c3ccco3)C3CSCN3C23C(=O)Nc2ccccc23)cnn1-c1ccccc1` (centres unmarked) [8b, 7'-(Furan-2-yl)-6'-(5-methyl-1-phenyl-1H-pyrazole-4-carbonyl)-3',6',7',7a'-tetrahydro-1'H-spiro[indoline-3,5'-pyrrolo[1,2-c]thiazol]-2-one] returned a melting point of 227 to 228 °C. Moreover, the apoptotic activity entry in the series on A549 cells is on record as “significantly trigger apoptosis”. In addition, the apoptotic activity entry with A549 cells (listed as 8t) was “highly significant apoptotic activity”. Besides, the p53 level entry with p53 (setting [2]) is recorded as “significantly increased; also recorded: able to activate p53”. For the same compound, the MDM2 level result in the series with MDM2 (setting [2]) is listed as “an increase”. The p21 level entry in the series with p21 (setting [2]) was “an increase”. The same compound had a half-inhibitory concentration (IC50) in [1] not below 30 µM.
Regarding `Cc1c(C(=O)C2C(c3ccc(Cl)cc3Cl)C3CSCN3C23C(=O)Nc2ccccc23)cnn1-c1ccccc1` (centres unmarked) [8h, 7'-(2,4-Dichlorophenyl)-6'-(5-methyl-1-phenyl-1H-pyrazole-4-carbonyl)-1',6',7',7a'-tetrahydro-3'H-spiro[indoline-3,5'-pyrrolo[1,2-c]thiazol]-2-one], the melting point is 141 to 142 °C. This compound returned an IC50 in the series with A2780 (ovarian) of 10.3 µM. In addition, 18.6 µM corresponded to half-maximal inhibition in the series on HepG2 (liver) (IC50). In the series on activated PBL (PBL A), the IC50 was 53.6 ± 2.1 µM. In the series on activated PBL (PBL B), the IC50 is 57.4 ± 5.5 µM. Moreover, the concentration for half-maximal inhibition (IC50) in the series on activated PBL (PBL C) amounted to 65.8 ± 23.2 µM. The apoptotic activity entry in the series on A549 cells is “slightly trigger apoptosis”. In the series with p53, the “p53 induction, dose–response” value was “able to induce p53 only at high concentrations; also recorded: induce p53, although not at high level and only at high concentrations”; the “p53 level, single agent” value was “did not increase”; the “p53 level … compared to doxorubicin alone” value is given as “no further increases; also recorded: did not trigger a further”. In addition, in the series on MDM2, the “MDM2 level, single agent” value is “slight but not significant MDM2 increase” and the “MDM2 level … compared to doxorubicin alone” value is “no further increases; also recorded: did not trigger a further”. For the same compound, in the series with p21, the “p21 level, single agent” value is given as “did not increase” and the “p21 level … compared to doxorubicin alone” value is reported as “no further increases”.
Regarding `Cc1c(C(=O)C2C(c3cccc(F)c3)C3CSCN3C23C(=O)Nc2ccccc23)cnn1-c1ccccc1` (centres unmarked) [8j, 7'-(3-Fluorophenyl)-6'-(5-methyl-1-phenyl-1H-pyrazole-4-carbonyl)-1',6',7',7a'-tetrahydro-3'H-spiro[indoline-3,5'-pyrrolo[1,2-c]thiazol]-2-one], the melting point was 125 to 126 °C. In addition, the IC50 with activated PBL (PBL A) was found to be 54 ± 2.5 µM. For the same compound, in the series on activated PBL (PBL B), the 50% inhibitory concentration (IC50) stood at 55 ± 3.3 µM. The IC50 in the series with activated PBL (PBL C) was 61.2 ± 19.7 µM. The apoptotic activity entry with A549 cells was “slightly trigger apoptosis”. In the series on p53, the “p53 induction, dose–response” value was “able to induce p53 only at high concentrations; also recorded: induce p53, although not at high level and only at high concentrations”; the “p53 level, single agent” value is given as “did not increase”; the “p53 level … compared to doxorubicin alone” value is “no further increases; also recorded: did not trigger a further”. Besides, in the series with MDM2, the “MDM2 level, single agent” value is on record as “slight but not significant MDM2 increase” and the “MDM2 level … compared to doxorubicin alone” value is “no further increases; also recorded: did not trigger a further”. Further, in the series on p21, the “p21 level, single agent” value is given as “did not increase” and the “p21 level … compared to doxorubicin alone” value is recorded as “no further increases”.
With `Cc1c(C(=O)C2C(c3ccccn3)C3CSCN3C23C(=O)Nc2ccccc23)cnn1-c1ccccc1` (centres unmarked) [8l, 6'-(5-Methyl-1-phenyl-1H-pyrazole-4-carbonyl)-7'-(pyridin-2-yl)-3',6',7',7a'-tetrahydro-1'H-spiro[indoline-3,5'-pyrrolo[1,2-c]thiazol]-2-one], the melting point is 135 to 136 °C. The IC50 in [1] is not below 30 µM.
On to `COc1cccc2c1C(=O)c1c(O)c3c(c(O)c1C2=O)C[C@@](O)(C(=O)CO)C[C@@H]3O[C@H]1C[C@H](N)[C@H](O)[C@H](C)O1` [Doxorubicin, doxorubicin], for which the “p53 level, single agent” value with p53 was “clearly triggered the induction”. The “MDM2 level, single agent” value in the series on MDM2 is listed as “strongly decreased”. Further, in the series with p21, the “p21 level, single agent” value was “clearly triggered the induction”.
